ChEMBL document CHEMBL3992501, “Synthesis and biological evaluation of salinomycin triazole analogues as anticancer agents” (Eur J Med Chem, 2017)
pIC50: −log10 of the molar value.

Experiments:
MCF7 = test: Antiproliferative activity against human MCF7 cells after 48 hrs by MTT assay; type: functional, cell-based; settings: MCF7, 48 h
MDA-MB-231 = test: Antiproliferative activity against human MDA-MB-231 cells after 48 hrs by MTT assay; type: functional, cell-based; settings: MDA-MB-231, 48 h

SMILES	pIC50 (MCF7)	pIC50 (MDA-MB-231)
CC[C@@H](C(=O)[C@@H](C)[C@@H](O)[C@H](C)[C@@H]1O[C@@H]([C@@H](CC)C(=O)O)CC[C@@H]1C)[C@H]1O[C@]2(C=C[C@@H](OC(=O)Cn3cc(COCc4cn(CC(=O)O[C@@H]5C=C[C@]6(O[C@H]([C@@H](CC)C(=O)[C@@H](C)[C@@H](O)[C@H](C)[C@@H]7O[C@@H]([C@@H](CC)C(=O)O)CC[C@@H]7C)[C@@H](C)C[C@H]6C)O[C@@]56CC[C@@](C)([C@H]5CC[C@](O)(CC)[C@H](C)O5)O6)nn4)nn3)[C@]3(CC[C@@](C)([C@H]4CC[C@](O)(CC)[C@H](C)O4)O3)O2)[C@H](C)C[C@@H]1C	6.13	5.33
CC[C@@H](C(=O)[C@@H](C)[C@@H](O)[C@H](C)[C@@H]1O[C@@H]([C@@H](CC)C(=O)OCc2cn(CCCCCCC(=O)O)nn2)CC[C@@H]1C)[C@H]1O[C@]2(C=C[C@@H](O)[C@]3(CC[C@@](C)([C@H]4CC[C@](O)(CC)[C@H](C)O4)O3)O2)[C@H](C)C[C@@H]1C	4.79	4.71
CC[C@@H](C(=O)[C@@H](C)[C@@H](O)[C@H](C)[C@@H]1O[C@@H]([C@@H](CC)C(=O)O)CC[C@@H]1C)[C@H]1O[C@]2(C=C[C@@H](OC(=O)Cn3cc(CCCC(=O)O)nn3)[C@]3(CC[C@@](C)([C@H]4CC[C@](O)(CC)[C@H](C)O4)O3)O2)[C@H](C)C[C@@H]1C	5.44	5.71
CC[C@@H](C(=O)[C@@H](C)[C@@H](O)[C@H](C)[C@@H]1O[C@@H]([C@@H](CC)C(=O)O)CC[C@@H]1C)[C@H]1O[C@]2(C=C[C@@H](OC(=O)Cn3cc(-c4cccc(N)c4)nn3)[C@]3(CC[C@@](C)([C@H]4CC[C@](O)(CC)[C@H](C)O4)O3)O2)[C@H](C)C[C@@H]1C	5.78	5.48
CC[C@@H](C(=O)[C@@H](C)[C@@H](O)[C@H](C)[C@@H]1O[C@@H]([C@@H](CC)C(=O)OCc2cn(CCCCC(=O)O)nn2)CC[C@@H]1C)[C@H]1O[C@]2(C=C[C@@H](O)[C@]3(CC[C@@](C)([C@H]4CC[C@](O)(CC)[C@H](C)O4)O3)O2)[C@H](C)C[C@@H]1C	4.70	4.58
CC[C@@H](C(=O)[C@@H](C)[C@@H](O)[C@H](C)[C@@H]1O[C@@H]([C@@H](CC)C(=O)O)CC[C@@H]1C)[C@H]1O[C@]2(C=C[C@@H](OC(=O)Cn3cc(CO)nn3)[C@]3(CC[C@@](C)([C@H]4CC[C@](O)(CC)[C@H](C)O4)O3)O2)[C@H](C)C[C@@H]1C	5.48	5.57
CC[C@@H](C(=O)[C@@H](C)[C@@H](O)[C@H](C)[C@@H]1O[C@@H]([C@@H](CC)C(=O)OCc2cn(CCC(=O)O)nn2)CC[C@@H]1C)[C@H]1O[C@]2(C=C[C@@H](O)[C@]3(CC[C@@](C)([C@H]4CC[C@](O)(CC)[C@H](C)O4)O3)O2)[C@H](C)C[C@@H]1C	4.43	4.06
CC[C@@H](C(=O)[C@@H](C)[C@@H](O)[C@H](C)[C@@H]1O[C@@H]([C@@H](CC)C(=O)O)CC[C@@H]1C)[C@H]1O[C@]2(C=C[C@@H](OC(=O)Cn3cc(CCO)nn3)[C@]3(CC[C@@](C)([C@H]4CC[C@](O)(CC)[C@H](C)O4)O3)O2)[C@H](C)C[C@@H]1C	5.67	5.33
CC[C@@H](C(=O)[C@@H](C)[C@@H](O)[C@H](C)[C@@H]1O[C@@H]([C@@H](CC)C(=O)O)CC[C@@H]1C)[C@H]1O[C@]2(C=C[C@@H](OC(=O)Cn3cc(COCCOC(=O)c4cn(CC(=O)O[C@@H]5C=C[C@]6(O[C@H]([C@@H](CC)C(=O)[C@@H](C)[C@@H](O)[C@H](C)[C@@H]7O[C@@H]([C@@H](CC)C(=O)O)CC[C@@H]7C)[C@@H](C)C[C@H]6C)O[C@@]56CC[C@@](C)([C@H]5CC[C@](O)(CC)[C@H](C)O5)O6)nn4)nn3)[C@]3(CC[C@@](C)([C@H]4CC[C@](O)(CC)[C@H](C)O4)O3)O2)[C@H](C)C[C@@H]1C	6.22	5.17
CC[C@@H](C(=O)[C@@H](C)[C@@H](O)[C@H](C)[C@@H]1O[C@@H]([C@@H](CC)C(=O)OCc2cn(CCCCCCCCCCC(=O)O)nn2)CC[C@@H]1C)[C@H]1O[C@]2(C=C[C@@H](O)[C@]3(CC[C@@](C)([C@H]4CC[C@](O)(CC)[C@H](C)O4)O3)O2)[C@H](C)C[C@@H]1C	5.44	5.37
CC[C@@H](C(=O)[C@@H](C)[C@@H](O)[C@H](C)[C@@H]1O[C@@H]([C@@H](CC)C(=O)O)CC[C@@H]1C)[C@H]1O[C@]2(C=C[C@@H](OC(=O)Cn3cc(COCCOCc4cn(CC(=O)O[C@@H]5C=C[C@]6(O[C@H]([C@@H](CC)C(=O)[C@@H](C)[C@@H](O)[C@H](C)[C@@H]7O[C@@H]([C@@H](CC)C(=O)O)CC[C@@H]7C)[C@@H](C)C[C@H]6C)O[C@@]56CC[C@@](C)([C@H]5CC[C@](O)(CC)[C@H](C)O5)O6)nn4)nn3)[C@]3(CC[C@@](C)([C@H]4CC[C@](O)(CC)[C@H](C)O4)O3)O2)[C@H](C)C[C@@H]1C	6.04	5.39
CC[C@@H](C(=O)[C@@H](C)[C@@H](O)[C@H](C)[C@@H]1O[C@@H]([C@@H](CC)C(=O)O)CC[C@@H]1C)[C@H]1O[C@]2(C=C[C@@H](OC(=O)Cn3cc(C(=O)O)nn3)[C@]3(CC[C@@](C)([C@H]4CC[C@](O)(CC)[C@H](C)O4)O3)O2)[C@H](C)C[C@@H]1C	5.73	5.19
CC[C@@H](C(=O)[C@@H](C)[C@@H](O)[C@H](C)[C@@H]1O[C@@H]([C@@H](CC)C(=O)OCc2cn(CC(=O)O)nn2)CC[C@@H]1C)[C@H]1O[C@]2(C=C[C@@H](O)[C@]3(CC[C@@](C)([C@H]4CC[C@](O)(CC)[C@H](C)O4)O3)O2)[C@H](C)C[C@@H]1C	4.86	< 4.00
CC[C@@H](C(=O)[C@@H](C)[C@@H](O)[C@H](C)[C@@H]1O[C@@H]([C@@H](CC)C(=O)O)CC[C@@H]1C)[C@H]1O[C@]2(C=C[C@@H](OC(=O)Cn3cc(CCC(=O)O)nn3)[C@]3(CC[C@@](C)([C@H]4CC[C@](O)(CC)[C@H](C)O4)O3)O2)[C@H](C)C[C@@H]1C	5.69	5.50
CC[C@@H](C(=O)[C@@H](C)[C@@H](O)[C@H](C)[C@@H]1O[C@@H]([C@@H](CC)C(=O)O)CC[C@@H]1C)[C@H]1O[C@]2(C=C[C@@H](OC(=O)Cn3cc(CCOC(=O)c4cn(CC(=O)O[C@@H]5C=C[C@]6(O[C@H]([C@@H](CC)C(=O)[C@@H](C)[C@@H](O)[C@H](C)[C@@H]7O[C@@H]([C@@H](CC)C(=O)O)CC[C@@H]7C)[C@@H](C)C[C@H]6C)O[C@@]56CC[C@@](C)([C@H]5CC[C@](O)(CC)[C@H](C)O5)O6)nn4)nn3)[C@]3(CC[C@@](C)([C@H]4CC[C@](O)(CC)[C@H](C)O4)O3)O2)[C@H](C)C[C@@H]1C	6.15	5.05
CC[C@@H](C(=O)[C@@H](C)[C@@H](O)[C@H](C)[C@@H]1O[C@@H]([C@@H](CC)C(=O)OCc2cn(CCCCCC(=O)O)nn2)CC[C@@H]1C)[C@H]1O[C@]2(C=C[C@@H](O)[C@]3(CC[C@@](C)([C@H]4CC[C@](O)(CC)[C@H](C)O4)O3)O2)[C@H](C)C[C@@H]1C	4.44	4.36
CC[C@@H](C(=O)[C@@H](C)[C@@H](O)[C@H](C)[C@@H]1O[C@@H]([C@@H](CC)C(=O)O)CC[C@@H]1C)[C@H]1O[C@]2(C=C[C@@H](OC(=O)Cn3cc(COCCO)nn3)[C@]3(CC[C@@](C)([C@H]4CC[C@](O)(CC)[C@H](C)O4)O3)O2)[C@H](C)C[C@@H]1C	5.91	5.39
CC[C@@H](C(=O)[C@@H](C)[C@@H](O)[C@H](C)[C@@H]1O[C@@H]([C@@H](CC)C(=O)O)CC[C@@H]1C)[C@H]1O[C@]2(C=C[C@@H](OC(=O)CCl)[C@]3(CC[C@@](C)([C@H]4CC[C@](O)(CC)[C@H](C)O4)O3)O2)[C@H](C)C[C@@H]1C	5.73	5.23
CC[C@@H](C(=O)[C@@H](C)[C@@H](O)[C@H](C)[C@@H]1O[C@@H]([C@@H](CC)C(=O)OCc2cn(CCCC(=O)O)nn2)CC[C@@H]1C)[C@H]1O[C@]2(C=C[C@@H](O)[C@]3(CC[C@@](C)([C@H]4CC[C@](O)(CC)[C@H](C)O4)O3)O2)[C@H](C)C[C@@H]1C	4.39	4.28
CC[C@@H](C(=O)[C@@H](C)[C@@H](O)[C@H](C)[C@@H]1O[C@@H]([C@@H](CC)C(=O)O)CC[C@@H]1C)[C@H]1O[C@]2(C=C[C@@H](O)[C@]3(CC[C@@](C)([C@H]4CC[C@](O)(CC)[C@H](C)O4)O3)O2)[C@H](C)C[C@@H]1C [SALINOMYCIN]	5.53	5.19
